# Like-named read-outs stand apart in the source and are kept apart here. Starred links: 1 amine or outer side, 2 acyl side, 3 side chain; linkers in the order of their positions; H or OH if unused. Non-standard residues stand in square brackets, D forms with d. Residues, ends and D or L forms follow the SMILES beside them. Groups on a side chain read outwards from the residue. No end group written: not given here. *: point of attachment. C20 diacid = O=C(O)CCCCCCCCCCCCCCCCCCC(=O)*; C18 diacid = O=C(O)CCCCCCCCCCCCCCCCC(=O)*; αMePhe(2-F) = C[C@](N)(Cc1ccccc1F)C(=O)O; γGlu = O=C(O)[C@H](CCC(=O)[*:2])N[*:1]; αMe4Pal = C[C@](N)(Cc1ccncc1)C(=O)O; αMeY = C[C@](N)(Cc1ccc(O)cc1)C(=O)O; 4Pal = N[C@@H](Cc1ccncc1)C(=O)O; αMeL = CC(C)C[C@](C)(N)C(=O)O; αMeS = C[C@](N)(CO)C(=O)O; Orn = NCCC[C@H](N)C(=O)O; AEEA = NCCOCCOCC(=O)O; Aib = CC(C)(N)C(=O)O
# How the values were obtained:
# Format in all cases: cell-based
# hGIPR [1] = biological target: T1, hGIPR (Homo sapiens, UniProt P48546); assay: Functional cAMP activity in the presence of 1% HSA; conditions: read-out: cAMP Rel EC50, hGIPR
# T1 sequence (P48546 22-466): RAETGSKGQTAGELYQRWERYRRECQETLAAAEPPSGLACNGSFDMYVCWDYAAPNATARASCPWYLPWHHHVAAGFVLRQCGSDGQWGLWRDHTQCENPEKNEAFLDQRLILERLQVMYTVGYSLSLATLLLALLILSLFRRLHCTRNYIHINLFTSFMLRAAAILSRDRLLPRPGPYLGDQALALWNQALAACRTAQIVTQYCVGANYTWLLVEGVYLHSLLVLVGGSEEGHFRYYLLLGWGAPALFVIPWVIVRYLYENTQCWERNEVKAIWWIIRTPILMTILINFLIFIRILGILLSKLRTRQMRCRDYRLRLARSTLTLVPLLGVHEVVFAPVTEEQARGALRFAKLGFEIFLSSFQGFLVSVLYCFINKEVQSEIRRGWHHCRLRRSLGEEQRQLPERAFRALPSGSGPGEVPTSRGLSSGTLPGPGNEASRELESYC
# hGLP-1R [2] = biological target: T2, hGLP-1R (Homo sapiens, UniProt P43220); assay: Functional cAMP activity in the presence of 1% HSA; conditions: read-out: cAMP Rel EC50, hGLP-1R
# human GcgR = human GcgR (Homo sapiens, UniProt P47871); assay: Functional cAMP activity in the presence of 1% HSA; conditions: read-out: cAMP Rel EC50, hGcgR
# hGIPR [3] = biological target: T1, hGIPR; assay: Functional cAMP activation in the presence of 0.1% casein (no HSA); conditions: read-out: Relative cAMP EC50, hGIPR;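 for Relative cAMP EC50, hGIPR: intracellular cAMP rise after 30 min at 37 °C read by HTRF against a standard curve, scaled between buffer alone (0%) and top control ligand concentration (100%), four-parameter fit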;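 for Relative cAMP EC50, hGLP-1R: intracellular cAMP rise after 30 min at 37 °C read by HTRF, normalized between buffer only (0%) and maximal control ligand (100%), four-parameter variable-slope fit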;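 for Relative cAMP EC50, hGcgR: intracellular cAMP rise after 30 min at 37 °C, read by HTRF against a cAMP standard curve, scaled from buffer only (0%) to maximal control ligand response (100%)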
# hGLP-1R [4] = biological target: T2, hGLP-1R; assay: as above; conditions: read-out: Relative cAMP EC50, hGLP-1R
# hGcgR = hGcgR (Homo sapiens, UniProt P47871); assay: as above; conditions: read-out: Relative cAMP EC50, hGcgR;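 note: intracellular cAMP rise after 30 min at 37 °C, read by HTRF against a cAMP standard curve, scaled from buffer only (0%) to maximal control ligand response (100%)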
# [5] = in the presence of 0.1% casein (no HSA), geometric mean
# [6] = HEK-293 clonal cell line, 1% HSA, geometric mean of relative EC50
# [7] = in the presence of 0.1% casein (no HSA), geometric mean of relative EC50
# [8] = 0.1% casein, no HSA, geometric mean
# T2 sequence (P43220 24-463): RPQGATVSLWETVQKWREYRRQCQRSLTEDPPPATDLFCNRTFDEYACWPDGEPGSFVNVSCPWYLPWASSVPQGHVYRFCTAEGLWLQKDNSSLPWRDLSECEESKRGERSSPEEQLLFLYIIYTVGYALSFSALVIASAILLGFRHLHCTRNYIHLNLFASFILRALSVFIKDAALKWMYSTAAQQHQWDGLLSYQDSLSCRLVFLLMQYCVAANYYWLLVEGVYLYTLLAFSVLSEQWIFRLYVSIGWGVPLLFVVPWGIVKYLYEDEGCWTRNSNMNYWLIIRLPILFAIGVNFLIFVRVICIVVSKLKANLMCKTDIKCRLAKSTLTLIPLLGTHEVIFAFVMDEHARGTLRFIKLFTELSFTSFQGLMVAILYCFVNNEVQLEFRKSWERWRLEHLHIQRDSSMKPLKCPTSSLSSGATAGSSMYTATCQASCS
# Sequence of human GcgR (P47871 26-477): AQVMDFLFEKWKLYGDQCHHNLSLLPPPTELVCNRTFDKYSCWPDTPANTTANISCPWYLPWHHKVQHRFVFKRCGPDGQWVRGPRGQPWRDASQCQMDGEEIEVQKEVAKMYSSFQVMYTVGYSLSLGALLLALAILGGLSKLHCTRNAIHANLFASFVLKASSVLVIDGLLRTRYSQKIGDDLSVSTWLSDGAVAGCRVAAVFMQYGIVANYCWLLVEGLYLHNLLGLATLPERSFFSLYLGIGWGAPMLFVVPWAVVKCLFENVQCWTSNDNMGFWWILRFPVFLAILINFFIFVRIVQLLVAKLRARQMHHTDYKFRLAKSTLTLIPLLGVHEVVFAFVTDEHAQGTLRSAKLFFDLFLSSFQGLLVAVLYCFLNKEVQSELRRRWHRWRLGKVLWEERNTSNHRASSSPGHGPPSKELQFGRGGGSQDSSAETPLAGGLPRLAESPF
# Sequence of hGcgR (P47871 26-477): as above
Compound,EC50 (hGIPR [1]),EC50 (hGLP-1R [2]),EC50 (human GcgR),EC50 (hGIPR [3]),EC50 (hGLP-1R [4]),EC50 (hGcgR),EC50 (hGIPR [3]; [5]),EC50 (hGLP-1R [4]; [5]),EC50 (hGcgR; [5]),also measured
Y[Aib]QGT[αMePhe(2-F)]TSD[4Pal][αMeS]I[αMeL]LD[Orn]K([γGlu-γGlu-C18 diacid])AQ[Aib]QFI[dE][αMeY]LQEGGPSSGEPPPEGTE-NH2 [Example 528],1.55 nM,24.3 nM,474 nM,0.0333 nM,0.434 nM,7 nM,,,,
H-Y[Aib]QGTFTSD[4Pal]SQ[αMeL]LD[Orn]K([γGlu-γGlu-C18 diacid])AQ[αMe4Pal]AFIEYLIE[dA]GPSSGAPPPSGS-NH2 [Example 1017],28.3 nM,118 nM,649 nM,,,,0.228 nM,1.16 nM,6.47 nM,
H-Y[Aib]QGT[αMePhe(2-F)]TSD[4Pal]SI[αMeL]LD[Orn]K([γGlu-γGlu-C18 diacid])AQ[αMe4Pal]EFI[dE][αMeY]LLEGGPSSGAPPPSGE-NH2 [Example 617],0.643 nM,67.4 nM,547 nM,0.00849 nM,0.534 nM,4.56 nM,,,,
H-Y[Aib]QGTFTSDFS[Orn][αMeL]LDKK([AEEA-γGlu-C20 diacid])AQ[Aib]AFIEYLLAGGPSSGAPPPSGS[AEEA]-NH2 [Example 83],91.8 nM,653 nM,1270 nM,,,,0.185 nM,2.85 nM,10.2 nM,
H-Y[Aib]QGT[αMePhe(2-F)]TSD[4Pal]SI[αMeL]LDKK([γGlu-γGlu-C18 diacid])AQ[Aib][Orn]FIEYLAEGGPSSGEPPPEGSEE-NH2 [Example 650],,,,,,,,,,EC50 (hGIPR [1]; [6]): 3.1 nM; EC50 (hGLP-1R [2]; [6]): 31.4 nM; EC50 (human GcgR; [6]): 574 nM; EC50 (hGIPR [3]; [7]): 0.0814 nM; EC50 (hGLP-1R [4]; [7]): 0.649 nM; EC50 (hGcgR; [7]): 16.2 nM
Y[Aib]QGT[αMePhe(2-F)]TSD[4Pal][αMeS]I[αMeL]LD[Orn][Orn]([AEEA-γGlu-C18 diacid])AQ[αMe4Pal]EFI[dE][αMeY]LVEGGPSSGAPPPSGS-NH2 [Example 1210],0.635 nM,38.1 nM,288 nM,,,,,,,EC50 (hGIPR [3]; [8]): 0.00704 nM; EC50 (hGLP-1R [4]; [8]): 0.375 nM; EC50 (hGcgR; [8]): 2.25 nM
H-Y[Aib]QGTFTSD[4Pal]S[Orn][αMeL]LD[Orn]K([γGlu-γGlu-C18 diacid])AQ[Aib]AFIEYLLAGGPSSGAPPPSGSEE-NH2 [Example 1069],39.5 nM,1290 nM,2160 nM,,,,0.417 nM,8.87 nM,21.2 nM,
H-Y[Aib]QGTFTSD[4Pal]S[Orn][αMeL]LD[Orn]K([γGlu-γGlu-C18 diacid])AQ[Aib]AFIE[αMeY]LLEGGPSSGAPPPSGSEE-NH2 [Example 1064],62.5 nM,912 nM,1940 nM,,,,0.556 nM,7.89 nM,13.7 nM,
Y[Aib]QGT[αMePhe(2-F)]TSD[4Pal]SI[αMeL]LD[Orn]K([AEEA-γGlu-C18 diacid])AQ[αMe4Pal][Orn]FI[dE][αMeY]LIEGGPSSGDPPPESE-NH2 [Example 729],1.43 nM,27 nM,276 nM,0.0113 nM,0.288 nM,2.11 nM,,,,
CC[C@H](C)[C@H](NC(=O)[C@H](Cc1ccccc1)NC(=O)[C@H](C)NC(=O)C(C)(C)NC(=O)[C@H](CCC(N)=O)NC(=O)[C@H](C)NC(=O)[C@H](CCCCNC(=O)COCCOCCNC(=O)COCCOCCNC(=O)CC[C@H](NC(=O)CCCCCCCCCCCCCCCCCCC(=O)O)C(=O)O)NC(=O)[C@H](CCCCN)NC(=O)[C@H](CC(=O)O)NC(=O)[C@H](CC(C)C)NC(=O)[C@H](CC(C)C)NC(=O)[C@@H](NC(=O)[C@H](CO)NC(=O)[C@H](Cc1ccc(O)cc1)NC(=O)[C@H](CC(=O)O)NC(=O)[C@H](CO)NC(=O)[C@@H](NC(=O)[C@](C)(Cc1ccccc1F)NC(=O)[C@@H](NC(=O)CNC(=O)[C@H](CCC(N)=O)NC(=O)C(C)(C)NC(=O)[C@@H](N)Cc1ccc(O)cc1)[C@@H](C)O)[C@@H](C)O)[C@@H](C)CC)C(=O)N[C@@H](CCC(=O)O)C(=O)N[C@@H](Cc1ccc(O)cc1)C(=O)N[C@@H](CC(C)C)C(=O)N[C@@H](CC(C)C)C(=O)N[C@@H](CCC(=O)O)C(=O)NCC(=O)NCC(=O)N1CCC[C@H]1C(=O)N[C@@H](CO)C(=O)N[C@@H](CO)C(=O)NCC(=O)N[C@@H](C)C(=O)N1CCC[C@H]1C(=O)N1CCC[C@H]1C(=O)N1CCC[C@H]1C(=O)N[C@@H](CCC(=O)O)C(N)=O [Example 386] (H-Y[Aib]QGT[αMePhe(2-F)]TSDYSILLDKK([AEEA-AEEA-γGlu-C20 diacid])AQ[Aib]AFIEYLLEGGPSSGAPPPE-NH2),5.62 nM,98.6 nM,734 nM,,,,0.0156 nM,0.278 nM,1.7 nM,
Y[Aib]QGT[αMePhe(2-F)]TSD[4Pal][αMeS]ILLD[Orn]K([γGlu-γGlu-C18 diacid])AQ[Aib][Orn]FI[dE]YLIEGGPSSGEPPPEGGEE-NH2 [Example 605],6.69 nM,56.2 nM,353 nM,0.132 nM,0.795 nM,5.49 nM,,,,
H-Y[Aib]QGTFTSD[4Pal]S[Orn][αMeL]LDKK([γGlu-γGlu-C18 diacid])AQ[αMe4Pal]AFIE[αMe4Pal]LIE[Aib]GPSSGEPPPSGSE-NH2 [Example 990],9.87 nM,557 nM,276 nM,,,,0.115 nM,5.78 nM,2.47 nM,
H-Y[Aib]QGT[αMePhe(2-F)]TSD[4Pal]SI[αMeL]LDKK([γGlu-γGlu-C18 diacid])AQ[Aib]AFIEYLEEGGPSSGAPPPSGTGE-NH2 [Example 622],1.19 nM,52.3 nM,641 nM,0.0148 nM,0.776 nM,7.7 nM,,,,
Y[Aib]QGTFTSD[4Pal]SQ[αMeL]LDKK([dE-γGlu-C18 diacid])AQ[αMe4Pal]AFIEYLIAGGPSSGAPPPSGEEE-NH2 [Example 1088],15.6 nM,367 nM,1710 nM,,,,0.182 nM,2.99 nM,14.8 nM,
Y[Aib]QGT[αMePhe(2-F)]TSDYSILLDKK([γGlu-γGlu-C18 diacid])AQ[Aib]AFIEYLEEGGPSSGAPPPSGE-NH2 [Example 435],10.3 nM,33.6 nM,334 nM,0.0239 nM,0.311 nM,3.01 nM,,,,
H-Y[Aib]QGTFTSD[4Pal]SQ[αMeL]LDKK([γGlu-γGlu-C18 diacid])AQ[αMe4Pal]QFIE[αMeY]LIEGGPSSGAPPPSGS-NH2 [Example 934],28.1 nM,175 nM,1380 nM,,,,0.0738 nM,0.649 nM,2.73 nM,
H-Y[Aib]QGTFTSDFS[Orn][αMeL]LDKK([AEEA-AEEA-γGlu-C18 diacid])AQ[Aib]AFIEYLLE[Aib]GPSSGEPPPEGS-NH2 [Example 195],28.8 nM,829 nM,605 nM,,,,0.145 nM,6.13 nM,3.1 nM,
H-Y[Aib]QGTFTSDFS[Orn][αMeL]LDKK([γGlu-γGlu-C18 diacid])AQ[Aib]AFIEYLLEGGPSSG[Aib]PPPGGS-NH2 [Example 771],44.2 nM,665 nM,955 nM,0.232 nM,4.38 nM,5.05 nM,,,,
H-Y[Aib]QGT[αMePhe(2-F)]TSD[4Pal][αMeS]I[αMeL]LD[Orn]K([AEEA-γGlu-C18 diacid])AQ[Aib][Orn]FI[dE][αMeY]LIEGGPSSGEPEPSEG-NH2 [Example 481],1.19 nM,14.2 nM,100 nM,0.0164 nM,0.204 nM,1.22 nM,,,,
H-Y[Aib]QGTFTSD[4Pal][αMeS]Q[αMeL]LD[Orn]K([dE-γGlu-C18 diacid])AQ[αMe4Pal]QFIQ[αMeY]LLE[Aib]GPSSGAPPPSGGGE-NH2 [Example 1138],3.4 nM,164 nM,72.8 nM,,,,0.0491 nM,1.93 nM,1.01 nM,
